# Results as given in patent US10975056B2 (GlaxoSmithKline Intellectual Property Development Limited, priority 2016, dated 2021).
# “And” between values parts separate entries of the source, which are not always exact repeats. Identical values can stand only once. Counter-ions that a name gives are not always drawn. Like-named read-outs stand apart in the source and are kept apart here.
# How the values were obtained:
# DNMT1 = DNMT1 (Homo sapiens, UniProt P26358); assay: DNMT1 biochemical activity, breaklight assay and/or SPA assay
# Sequence of DNMT1 (P26358 whole entry, looked up): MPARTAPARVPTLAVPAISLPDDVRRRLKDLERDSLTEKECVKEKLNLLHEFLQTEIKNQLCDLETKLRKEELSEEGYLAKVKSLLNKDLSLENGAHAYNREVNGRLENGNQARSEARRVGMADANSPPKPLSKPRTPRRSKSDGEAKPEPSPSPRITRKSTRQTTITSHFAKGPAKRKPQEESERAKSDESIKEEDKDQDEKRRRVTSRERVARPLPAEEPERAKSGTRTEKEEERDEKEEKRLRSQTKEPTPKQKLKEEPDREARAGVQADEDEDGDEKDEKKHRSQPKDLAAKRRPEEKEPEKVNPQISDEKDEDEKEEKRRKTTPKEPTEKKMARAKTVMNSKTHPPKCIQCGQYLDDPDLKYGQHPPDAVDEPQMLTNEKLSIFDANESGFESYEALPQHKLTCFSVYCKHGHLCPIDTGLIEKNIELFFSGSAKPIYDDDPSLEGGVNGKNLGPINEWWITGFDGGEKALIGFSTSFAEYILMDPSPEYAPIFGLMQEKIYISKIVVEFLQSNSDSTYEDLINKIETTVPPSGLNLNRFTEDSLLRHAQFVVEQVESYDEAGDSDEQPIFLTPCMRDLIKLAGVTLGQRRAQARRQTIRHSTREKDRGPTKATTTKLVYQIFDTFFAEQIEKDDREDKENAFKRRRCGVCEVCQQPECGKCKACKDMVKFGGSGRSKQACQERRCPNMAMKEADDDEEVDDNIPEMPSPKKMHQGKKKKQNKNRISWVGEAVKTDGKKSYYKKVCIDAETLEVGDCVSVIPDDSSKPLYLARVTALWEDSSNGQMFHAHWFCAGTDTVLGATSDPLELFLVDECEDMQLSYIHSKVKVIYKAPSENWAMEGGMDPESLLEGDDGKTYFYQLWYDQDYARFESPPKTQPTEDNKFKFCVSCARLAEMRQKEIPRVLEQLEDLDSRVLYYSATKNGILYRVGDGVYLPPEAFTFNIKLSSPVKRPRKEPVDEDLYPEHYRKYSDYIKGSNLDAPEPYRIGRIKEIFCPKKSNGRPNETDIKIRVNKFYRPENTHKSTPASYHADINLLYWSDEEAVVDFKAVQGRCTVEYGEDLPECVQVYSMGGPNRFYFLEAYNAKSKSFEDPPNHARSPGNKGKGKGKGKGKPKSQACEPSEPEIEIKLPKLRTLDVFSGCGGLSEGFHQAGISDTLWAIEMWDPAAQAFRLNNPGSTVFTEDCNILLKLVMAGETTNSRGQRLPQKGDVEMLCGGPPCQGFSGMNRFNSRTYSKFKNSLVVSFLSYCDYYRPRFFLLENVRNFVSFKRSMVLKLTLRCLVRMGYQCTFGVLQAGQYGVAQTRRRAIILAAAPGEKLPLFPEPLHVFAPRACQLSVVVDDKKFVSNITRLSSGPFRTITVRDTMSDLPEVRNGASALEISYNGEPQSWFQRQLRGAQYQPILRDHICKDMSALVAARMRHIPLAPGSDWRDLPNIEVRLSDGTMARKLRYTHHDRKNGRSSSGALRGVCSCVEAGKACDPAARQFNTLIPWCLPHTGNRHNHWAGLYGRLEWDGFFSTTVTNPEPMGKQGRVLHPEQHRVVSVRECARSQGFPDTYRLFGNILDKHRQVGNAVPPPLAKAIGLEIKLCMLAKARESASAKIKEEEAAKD
# [1] = system: erythroid progenitor cells (EPCs); assay: Fetal hemoglobin (HbF) ELISA in day 7 erythroid progenitor cells; assay type: cell-based, human; settings: HbF ELISA, day 7 EPCs, 5 days; for EC50: Homo sapiens, Erythroid progenitor cell, read-out: EPC ELISA (pEC50 category) (converted);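 as to all read-outs here: for fetal hemoglobin induction normalized to vehicle-treated cells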
# Procedure, shortened: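 HbF induction was read by anti-HbF sandwich ELISA (HRP/TMB, OD450) on lysates and normalized to vehicle-treated cells. Cells were day 7 erythroid progenitors derived from human bone marrow CD34+ cells, seeded at 1,000/well with 3 U/mL rhEPO. Compound was given for 5 days at 37 °C at final concentrations […].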
# [2] = binned activity in either the breaklight or the SPA assay, read-out: DNMT1 BioChemical (pIC50 category) (converted)
# [3] = breaklight assay and/or SPA assay, repeated experimental runs, read-out: average pIC50 against DNMT1 (converted)
# [4] = binned activity in either the breaklight or the SPA assay
Structure (SMILES),IC50 (DNMT1; [2]) [nM],EC50 [1] [nM],DNMT1 BioChemical (pIC50 category) (DNMT1; [4]),IC50 (DNMT1; [3]),EPC ELISA (pEC50 category) [1],"average pIC50 against DNMT1 (DNMT1; breaklight assay and/or SPA assay, repeated experimental runs, methanesulfonate 2,2,2-trifluoroacetate)"
"CCc1c(C#N)c(SCc2ccc(N(C)S(=O)(=O)C(F)F)cc2)nc(N2CCCN(C)CC2)c1C#N [Example 602, N-(4-(((3,5-dicyano-4-ethyl-6-(4-methyl-1,4-diazepan-1-yl)pyridin-2-yl)thio)methyl)phenyl)-1,1-difluoro-N-methylmethanesulfonamide]",316 to 1000,< 316,,316 to 1000 nM and 501 nM,,
"CCc1c(C#N)c(SCc2ccc(N3CCCS3(=O)=O)cc2)nc(N2CCC(NCC(C)(C)C)CC2)c1C#N [Example 603, 2-((4-(1,1-dioxidoisothiazolidin-2-yl)benzyl)thio)-4-ethyl-6-(4-(neopentylamino)piperidin-1-yl)pyridine-3,5-dicarbonitrile]",,> 31600,D (Category D: ≥6.5),,,
"CCc1c(C#N)c(SCc2ccc(N3CCCCS3(=O)=O)cc2)nc(N2CCC(NCC(C)(C)C)CC2)c1C#N [Example 604, 2-((4-(1,1-dioxido-1,2-thiazinan-2-yl)benzyl)thio)-4-ethyl-6-(4-(neopentylamino)piperidin-1-yl)pyridine-3,5-dicarbonitrile]",,> 31600,D (Category D: ≥6.5),,,
"CCc1c(C#N)c(SC(C(N)=O)c2ccccc2)nc(N2CCC[C@H](NC)C2)c1C#N (stereo partly drawn) [Example 607, 2-((3,5-dicyano-4-ethyl-6-((S)-3-(methylamino)piperidin-1-yl)pyridin-2-yl)thio)-2-phenylacetamide]",,< 316,D (Category D: ≥6.5),,,
"N#Cc1c(SC(C(N)=O)c2ccccc2)nc(N2CC(NC(=O)CN)C2)c(C#N)c1C1CC1 (centres unmarked) [Example 610, 2-amino-N-(1-(6-((2-amino-2-oxo-1-phenylethyl)thio)-3,5-dicyano-4-cyclopropylpyridin-2-yl)azetidin-3-yl)acetamide]",,1000 to 31600,D (Category D: ≥6.5),,,
"N#Cc1c(SC(C(N)=O)c2ccccc2)nc(N2CC(NC(=O)[C@@H](N)CO)C2)c(C#N)c1C1CC1 (stereo partly drawn) [Example 611, (2S)-2-amino-N-(1-(6-((2-amino-2-oxo-1-phenylethyl)thio)-3,5-dicyano-4-cyclopropylpyridin-2-yl)azetidin-3-yl)-3-hydroxypropanamide]",,1000 to 31600,D (Category D: ≥6.5),,,
"CCc1c(C#N)c(SC(C(N)=O)c2ccccc2)nc(N2CCC[C@H](N)C2)c1C#N (stereo partly drawn) [Example 612, 2-((6-((S)-3-aminopiperidin-1-yl)-3,5-dicyano-4-ethylpyridin-2-yl)thio)-2-phenylacetamide]",,< 316,D (Category D: ≥6.5),,,
"N#Cc1c(SC(C(N)=O)c2ccccc2)nc(N2CC(NC(=O)[C@H](N)CO)C2)c(C#N)c1C1CC1 (stereo partly drawn) [Example 614, (2R)-2-amino-N-(1-(6-((2-amino-2-oxo-1-phenylethyl)thio)-3,5-dicyano-4-cyclopropylpyridin-2-yl)azetidin-3-yl)-3-hydroxypropanamide]",,1000 to 31600,D (Category D: ≥6.5),,,
"CCc1c(C#N)c(SC(C(N)=O)c2ccccc2)nc(N2CCC(F)(CN)CC2)c1C#N (centres unmarked) [Example 618, 2-((6-(4-(aminomethyl)-4-fluoropiperidin-1-yl)-3,5-dicyano-4-ethylpyridin-2-yl)thio)-2-phenylacetamide hydrochloride]",,< 316,D (Category D: ≥6.5),,,
"CN(CC(=O)NCCN)c1nc(SC(C(N)=O)c2ccccc2)c(C#N)c(C2CC2)c1C#N (centres unmarked) [Example 619, 2-((6-((2-amino-2-oxo-1-phenylethyl)thio)-3,5-dicyano-4-cyclopropylpyridin-2-yl)(methyl)amino)-N-(2-aminoethyl)acetamide hydrochloride]",,1000 to 31600,D (Category D: ≥6.5),,,
"CCc1c(C#N)c(S[C@@H](C(N)=O)c2ccccc2)nc(N2CC[C@](O)(CN)C2)c1C#N [Example 624, (R)-2-((6-((S)-3-(aminomethyl)-3-hydroxypyrrolidin-1-yl)-3,5-dicyano-4-ethylpyridin-2-yl)thio)-2-phenylacetamide]",,,D (Category D: ≥6.5),,B (Category B: 4.5 ≤ x < 6.0),
"CCc1c(C#N)c(SC(C(N)=O)c2ccccc2)nc(N2CC[C@H](ONC(=N)N)C2)c1C#N (stereo partly drawn) [Example 625, 2-((3,5-dicyano-4-ethyl-6-((S)-3-(guanidinooxy)pyrrolidin-1-yl)pyridin-2-yl)thio)-2-phenylacetamide]",,< 316,D (Category D: ≥6.5),,,
"CCc1c(C#N)c(SCc2ccc(OS(C)(=O)=O)cc2)nc(N2CCC(N)CC2)c1C#N [Example 626, 4-(((6-(4-aminopiperidin-1-yl)-3,5-dicyano-4-ethylpyridin-2-yl)thio)methyl)phenyl methanesulfonate 2,2,2-trifluoroacetate]",,< 316,D (Category D: ≥6.5),200 nM,,> 6.5
"CCc1c(C#N)c(SC(C(N)=O)c2ccccc2)nc(N2CCC(NC(=O)CCCN)CC2)c1C#N (centres unmarked) [Example 629, 4-amino-N-(1-(6-((2-amino-2-oxo-1-phenylethyl)thio)-3,5-dicyano-4-ethylpyridin-2-yl)piperidin-4-yl)butanamide formate]",,1000 to 31600,D (Category D: ≥6.5),,,

# Continued, in another order:
IC50 (DNMT1; [2]) [nM],EC50 [1] [nM],DNMT1 BioChemical (pIC50 category) (DNMT1; [4]),Structure (SMILES),IC50 (DNMT1; [3]),EPC ELISA (pEC50 category) [1],"average pIC50 against DNMT1 (DNMT1; breaklight assay and/or SPA assay, repeated experimental runs, methanesulfonate 2,2,2-trifluoroacetate)"
,< 316,D (Category D: ≥6.5),"CCc1c(C#N)c(SC(C(N)=O)c2ccccc2)nc(N(C)CC(=O)N(C)CCO)c1C#N (centres unmarked) [Example 606, 2-((6-((2-amino-2-oxo-1-phenylethyl)thio)-3,5-dicyano-4-ethylpyridin-2-yl)(methyl)amino)-N-(2-hydroxyethyl)-N-methylacetamide]",,,
,< 316,D (Category D: ≥6.5),"CCc1c(C#N)c(SC(C(N)=O)c2ccccc2)nc(N(C)CC(=O)N(C)CC2(CO)CC2)c1C#N (centres unmarked) [Example 609, 2-((6-((2-amino-2-oxo-1-phenylethyl)thio)-3,5-dicyano-4-ethylpyridin-2-yl)(methyl)amino)-N-((1-(hydroxymethyl)cyclopropyl)methyl)-N-methylacetamide]",,,
,< 316,D (Category D: ≥6.5),"CCc1c(C#N)c(SC(C(N)=O)c2ccccc2)nc(N(C)CC(=O)N2CC[C@@H](O)C2)c1C#N (stereo partly drawn) [Example 613, 2-((3,5-dicyano-4-ethyl-6-((2-((R)-3-hydroxypyrrolidin-1-yl)-2-oxoethyl)(methyl)amino)pyridin-2-yl)thio)-2-phenylacetamide]",,,
,< 316,D (Category D: ≥6.5),"CCc1c(C#N)c(SC(C(N)=O)c2ccccc2)nc(N(C)CC(=O)N(C)CC(C)(C)CO)c1C#N (centres unmarked) [Example 615, 2-((6-((2-amino-2-oxo-1-phenylethyl)thio)-3,5-dicyano-4-ethylpyridin-2-yl)(methyl)amino)-N-(3-hydroxy-2,2-dimethylpropyl)-N-methylacetamide]",,,
,< 316,D (Category D: ≥6.5),"CCc1c(C#N)c(SC(C(N)=O)c2ccccc2)nc(N(C)CC(=O)N2CC[C@H](O)C2)c1C#N (stereo partly drawn) [Example 616, 2-((3,5-dicyano-4-ethyl-6-((2-((S)-3-hydroxypyrrolidin-1-yl)-2-oxoethyl)(methyl)amino)pyridin-2-yl)thio)-2-phenylacetamide]",,,
,< 316,D (Category D: ≥6.5),"CCc1c(C#N)c(SC(C(N)=O)c2ccccc2)nc(N(C)CC(=O)N2CCCC2)c1C#N (centres unmarked) [Example 620, 2-((3,5-dicyano-4-ethyl-6-(methyl(2-oxo-2-(pyrrolidin-1-yl)ethyl)amino)pyridin-2-yl)thio)-2-phenylacetamide]",,,
,< 316,D (Category D: ≥6.5),"CCc1c(C#N)c(SC(C(N)=O)c2ccccc2)nc(N(C)CC(=O)N2CCC(O)CC2)c1C#N (centres unmarked) [Example 621, 2-((3,5-dicyano-4-ethyl-6-((2-(4-hydroxypiperidin-1-yl)-2-oxoethyl)(methyl)amino)pyridin-2-yl)thio)-2-phenylacetamide]",,,
,< 316,D (Category D: ≥6.5),"CCc1c(C#N)c(SC(C(N)=O)c2ccccc2)nc(N(C)CC(=O)N2CCNCC2)c1C#N (centres unmarked) [Example 622, 2-((3,5-dicyano-4-ethyl-6-(methyl(2-oxo-2-(piperazin-1-yl)ethyl)amino)pyridin-2-yl)thio)-2-phenylacetamide]",,,
,< 316,D (Category D: ≥6.5),"CCc1c(C#N)c(SC(C(N)=O)c2ccccc2)nc(N(C)CC(=O)N2CCOCC2)c1C#N (centres unmarked) [Example 623, 2-((3,5-dicyano-4-ethyl-6-(methyl(2-morpholino-2-oxoethyl)amino)pyridin-2-yl)thio)-2-phenylacetamide]",,,
< 316,< 316,,"CCc1c(C#N)c(SC(C(N)=O)c2ccccc2)nc(N(C)CCNC(=O)C(C)(C)N)c1C#N (centres unmarked) [Example 627, 2-amino-N-(2-((6-((2-amino-2-oxo-1-phenylethyl)thio)-3,5-dicyano-4-ethylpyridin-2-yl)(methyl)amino)ethyl)-2-methylpropanamide]",,,
,< 316,D (Category D: ≥6.5),"CCc1c(C#N)c(SC(C(N)=O)c2ccccc2)nc(N(C)CCOCCN)c1C#N (centres unmarked) [Example 628, 2-((6-((2-(2-aminoethoxy)ethyl)(methyl)amino)-3,5-dicyano-4-ethylpyridin-2-yl)thio)-2-phenylacetamide]",,,
